Laboratory results taken from patent US20170216277A1, “[…] USE OF […] […] EFFECTS” (TREVI THERAPEUTICS, INC., priority 2016, published 2017).

Legend:
[1] = Serum sodium, TR01, healthy subjects (Cohort 2); type: in vivo, human
[2] = Serum sodium (pre-dialysis), TR01, hemodialysis patients (Cohort 1); type: in vivo, human
[3] = Heart rate, TR01, healthy subjects; type: in vivo, human
Experimental: (§1) The presence and extent of a possible aquaretic effect was evaluated by measuring urine output (healthy subjects only) and serum sodium as well as blood pressure and heart rate, as markers of potential volume depletion.
(§2) In the dialysis patients, all vital sign measurements and blood samples were collected pre-dialysis. On days of study drug administration, vital signs were measured at 0 (prior to the morning dose), 1.5, 4.5, and 8 hours after the morning dose and 2 hours after the evening meal, coinciding with administration of the PM dose. Blood pressure was also measured at 6 and 10 hours post dinner. On Day −1 (pre-treatment) vital sign measurements were obtained in the morning and evening at approximately the same time that study drug was administered on subsequent treatment days.
(§3) Blood pressure and heart rate were measured at multiple time points on Days −1 through 14 or 17.

[4] = Heart rate, TR01, hemodialysis patients; type: in vivo, human
Experimental: as §1, §2, §3

[5] = Adverse event reporting of increased urine output, TR01, hemodialysis patients; type: in vivo, human; details: dialysis patients in TR01; urine collection not performed
Excerpt: Based on historical data, the dialysis patients in TR01 had limited to no residual renal function.

[6] = Overall evaluation of aquaretic effect, TR01; type: in vivo, human
Experimental: (§4) The presence and extent of a possible aquaretic effect was evaluated by measuring urine output (healthy subjects only) and serum sodium as well as blood pressure and heart rate, as markers of potential volume depletion. Urine specific gravity was also analyzed to assess for reduced urine osmolarity (resulting in a decrease in urine specific gravity) due to free water excretion.

[7] = oral aqueous solution; fasted conditions, across studies
[8] = Blood pressure (diastolic and systolic), TR01, healthy subjects
Experimental: as §1, §2, §3

[9] = Blood pressure (diastolic and systolic), TR01, hemodialysis patients
Experimental: as §1, §2, §3

[10] = Urine output over 24 hours, Phase I trial TR01, healthy subjects (Cohort 2); details: five 24-hour collections, progressively higher doses
Experimental: as §4

Substance: 17-(cyclobutylmethyl)-4,5α-epoxymorphinian-3,6α,14-triol, hydrochloride [nalbuphine]
- Hypernatremia during nalbuphine treatment [1]: No healthy subject
- Trend of rising serum sodium during the treatment period [1]: nor was there a trend of rising serum sodium
- Hypernatremia during nalbuphine treatment [2]: No healthy subject (Table 5) or hemodialysis patient
- Trend of rising serum sodium during the treatment period [2]: nor was there a trend of rising serum sodium
- Dose or time-dependent mean heart rate increase [3]: no evidence of a dose or time-dependent mean heart rate increase
- Dose or time-dependent mean heart rate increase [4]: no evidence of a dose or time-dependent mean heart rate increase
- Adverse event of increased urine output [5]: no adverse event of increased urine output was reported
- Aquaretic effect ([6]; dialysis patients, doses up to 240 mg BID): no evidence of an aquaretic effect
- Aquaretic effect ([6]; healthy subjects, doses up to 180 mg BID): no evidence of an aquaretic effect
- Median Tmax [7]: 30 to 60 min
- Systolic blood pressure range throughout the study [8]: 78-148 mmHg
- Dose-related reductions in blood pressure ([8]; Days −1 through 14): no consistent dose-related reductions in blood pressure
- Hypotension ([8]; throughout the study): no subjects or patients developed hypotension
- Systolic blood pressure range throughout the study ([9]; dialysis patients): 70-199 mmHg
- Dose-related reductions in blood pressure ([9]; hemodialysis patients, Days −1 through 14 or 17): no consistent dose-related reductions in blood pressure
- Hypotension ([9]; hemodialysis patients, throughout the study): no subjects or patients developed hypotension
- Increased urine output related to dose or duration of time on nalbuphine [10]: no evidence of increased urine output
